The values below are quoted from earlier work in patent publication US20090048317A1, “Formulations of candesartan” (priority 2007, published 2009).

For this series the following is noted: in water and in methanol.

For `CCOc1nc2cccc(C(=O)OC(C)OC(=O)OC3CCCCC3)c2n1Cc1ccc(-c2ccccc2-c2nnn[nH]2)cc1` (racemic) [Candesartan cilexetil, (±)-1-[[(cyclohexyloxy)carbonyl]oxy]ethyl-2-ethoxy-1-[[′-(1H-tetrazol-5-yl)[1,1-biphenyl]-4-yl]methyl]-1H-benzimidazole-7-carboxylate], the solubility entry is listed as “sparingly soluble”.
